Earlier results, collected in US7998503B2, “Form of administration for controlling primary headaches” (LTS Lohmann Therapie-Systeme AG, priority 2003, dated 2011).

Settings: nasally administered, literature report

## CCN(CC)CC(=O)Nc1c(C)cccc1C [lidocaine]
e.g. sprays
  effect on migraine pain after nasal administration: fast decline in migraine pain
Shortly after administration
  renewed appearance of the pain after administration: recurrence, meaning renewed appearance of the pain, was found shortly after administration
